From US20250177426A1, “METHODS AND COMPOSITIONS FOR TREATING DEMENTIA” (Cognitive Synergy Corporation, priority 2023, published 2025)
Several values for one entry are separate records, joined by “and”; a condition that tells them apart may be missing. Equal values may be shown once.

What was measured:
SH-SY5Y cells = test: Survival of SH-SY5Y cells in solutions of Aβ; assay type: cell-based; conditions: FIG. 11, Aβ-only control 69%
Procedure: Referring to FIG. 10, FIG. 10 is a bar graph 1000 showing a percentage of survival of SH-SY5Y cells in solutions of Aβ and various concentrations of neoliquiritin. […] All the samples in the bar graph 1000 comprised the same concentration of 10 μM Aβ protein as the control sample as well as a variable concentration of neoliquiritin.
Referring to FIG. 11, FIG. 11 is a bar graph 1100 showing a percentage of survival of SH-SY5Y cells in solutions of neoliquiritin, isoliquiritigenin, isoliquiritin, sinapic acid O-glucoside, trans-sinapic acid, and liquiritigenin at various concentrations. […] The other samples in the bar graph 1100 all contain the same concentration of 10 μM Aβ protein as a control sample.

Aβ protein = target: T1, Aβ protein (Homo sapiens, UniProt P05067); test: Aβ fibrillization, percent of control; assay type: biochemical; conditions: for fibrillization of Aβ protein: FIG. 9, control = 100; for Aβ fibrillization as compared to control: FIG. 7; for Aβ fibrillization as compared to the control: FIG. 12
T1 construct: The bar graph 700 includes a control sample with 10 μM Aβ protein
T1 sequence (P05067 672-711 limits assumed): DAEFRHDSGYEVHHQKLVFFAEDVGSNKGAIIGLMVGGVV
Procedure: Referring to FIG. 7, FIG. 7 is a bar graph 700 showing a percentage of Aβ fibrillization as compared to a control for neoliquiritin, sebiricose A5, (Z)SA glycoside, and (E)SA glycoside. The bar graph 700 includes a control sample with 10 μM Aβ protein. The amount of Aβ fibrillization in the control sample is normalized to 100%. All other samples in the bar graph 700 include 10 μM Aβ protein and another compound at a concentration of 100 μM.
Referring to FIG. 8, FIG. 8 is a bar graph 800 showing a percentage of Aβ fibrillization as compared to a control for neoliquiritin samples of various concentrations. The amount of Aβ fibrillization in the control sample is normalized to 100%. All other samples in the bar graph 800 include 10 μM Aβ protein and a variable concentration of neoliquiritin.
Referring to FIG. 9, FIG. 9 is a bar graph 900 showing a percentage of Aβ fibrillization as compared to a control for neoliquiritin and liquiritigenin samples of various concentrations. Like the other bar graphs, the control sample is on the left side of the bar graph 900. The control sample comprises 10 μM Aβ protein and the percent fibrillization of Aβ protein in the control sample is normalized to 100. All other samples, which contain either neoliquiritin or liquiritigenin, also include a concentration of 10 μM Aβ protein.
Referring to FIG. 12, FIG. 12 is a bar graph 1200 showing a percentage of Aβ fibrillization as compared to a control for sinapic acid, trans-sinapic acid, and sinapic acid O-glucoside at various concentrations. On the left side of the bar graph 1200, a control sample comprising 10 μM Aβ protein has a fibrillization measurement normalized to 100. All other samples include the same concentration of 10 μM Aβ protein as a control sample.

Aβ fibrils = target: T2, Aβ fibrils (Homo sapiens, UniProt P05067); test: Relative fluorescence of prefibrillated Aβ after timed treatment; assay type: biochemical; conditions: FIG. 14, 50 μM compound
T2 construct: The bar graph 700 includes a control sample with 10 μM Aβ protein
T2 sequence (P05067 672-711 limits assumed): as above
From the text: Control samples containing only Aβ protein as starting material are unshaded. Other samples containing Aβ protein and an additional compound have shading according to the legend on the bottom of the bar graphs 1400.

[1] = 10 μM Aβ protein and 1 μM compound
[2] = 10 μM Aβ protein and 10 μM compound
[3] = 10 μM Aβ protein and 100 μM compound
[4] = 10 μM Aβ protein and 100 nM compound

Compound: O=C(/C=C/c1ccc(O)cc1)c1ccc(O)cc1O [isoliquiritigenin]
- survival for the SH-SY5Y cells (SH-SY5Y cells; [1]): 84%
- survival for the SH-SY5Y cells (SH-SY5Y cells; [2]): 81%

Compound: O=C1C[C@@H](c2ccc(O)cc2)Oc2cc(O)ccc21 [liquiritigenin, reference compound]
- fibrillization of Aβ protein (Aβ protein; 100 nM compound and 10 μM Aβ protein): 94%
- fibrillization of Aβ protein (Aβ protein; 10 μM compound and 10 μM Aβ protein): 92% and 90%
- fibrillization of Aβ protein (Aβ protein; 50 μM compound and 10 μM Aβ protein): 97%
- fibrillization of Aβ protein (Aβ protein; 100 μM compound and 10 μM Aβ protein): 83%
- survival for the SH-SY5Y cells (SH-SY5Y cells; [1]): 67%
- survival for the SH-SY5Y cells (SH-SY5Y cells; [2]): 67%

Compound: COc1cc(/C=C/C(=O)O)cc(OC)c1O[C@@H]1O[C@H](O)[C@@H](O)[C@H](O)[C@H]1O [(E)SA glycoside]
- Aβ fibrillization as compared to control (Aβ protein; [3]): 51%

Compound: COc1cc(/C=C/C(=O)O)cc(OC)c1O [T-SA, trans-sinapic acid, reference compound]
- Aβ fibrillization as compared to the control (Aβ protein; [4]): 98%
- Aβ fibrillization as compared to the control (Aβ protein; [1]): 95%
- Aβ fibrillization as compared to the control (Aβ protein; [2]): 89%
- Aβ fibrillization as compared to the control (Aβ protein; [3]): 79%
- Relative fluorescence for Aβ fibrils (Aβ fibrils; 46.5 hours, Aβ only approximately 900000): approximately 850000 RFU
- Relative fluorescence for Aβ fibrils (Aβ fibrils; 48 hours, Aβ only approximately 1070000): approximately 940000 RFU
- Relative fluorescence for Aβ fibrils (Aβ fibrils; 60 hours, Aβ only approximately 1010000): approximately 940000 RFU
- Relative fluorescence for Aβ fibrils (Aβ fibrils; 72 hours, Aβ only approximately 980000): approximately 770000 RFU
- survival for the SH-SY5Y cells (SH-SY5Y cells; [1]): 76%
- survival for the SH-SY5Y cells (SH-SY5Y cells; [2]): 77%

Compound: COc1cc(/C=C/C(=O)O)cc(OC)c1O [SA, sinapic acid, reference compound]
- Aβ fibrillization as compared to the control (Aβ protein; [4]): 105%
- Aβ fibrillization as compared to the control (Aβ protein; [1]): 101%
- Aβ fibrillization as compared to the control (Aβ protein; [2]): 114%
- Aβ fibrillization as compared to the control (Aβ protein; [3]): 85%

Compound: Sebiricose A5 [reference compound]
- Aβ fibrillization as compared to control (Aβ protein; [3]): 86%

Compound: O=C(/C=C/c1ccc(O[C@@H]2O[C@H](CO)[C@@H](O)[C@H](O)[C@H]2O)cc1)c1ccc(O)cc1O [isoliquiritin]
- survival for the SH-SY5Y cells (SH-SY5Y cells; [1]): 72%
- survival for the SH-SY5Y cells (SH-SY5Y cells; [2]): 74%
